Reference: patent EP2607478A1, “Phenanthroline treated MSC” (Universiteit Twente, priority 2011, dated 2013)

Tested on: MSCs
Test: Whole genome expression analysis (Illumina microarray) of treated MSCs
Assay type: cell-based, Human
Conditions: DFO versus Bas
Procedure: MSCs were seeded in T25 flasks at 5000 cells/cm^2 and allowed to attach overnight in proliferation medium. […] After 48 hours, RNA was isolated as described above. From 500 ng of RNA, cRNA was synthesized using the Illumina TotalPrep RNA amplification Kit (Ambion), according to the manufacturer's protocol and the quality of RNA and cRNA was verified on a Bioanalyzer 2100 (Agilent). Microarrays were performed using Illumina HT-12 v4 expression Beadchips, according to the manufacturer's protocol. Briefly, 750 ng of cRNA was hybridized on the array overnight after which the array was washed and blocked. Then, by addition of streptavidin Cy-3 a fluorescent signal was developed. Arrays were scanned on an Illumina iScan reader and raw intensity values were background corrected in GenomeStudio (Illumina). Further data processing and statistical testing were performed with R and Bioconductor statistical software (www.bioconductor.org), using package lumi. Raw intensity values were transformed using variance stabilization and a quantile normalization was performed. A linear modelling approach with empirical Bayesian methods, as implemented in Limma package (54), was applied for differential expression analysis of the resulting probe-level expression values. A gene list, containing only those genes with an absolute 1.5-fold change between different treatments, was uploaded to Ingenuity Pathway Analysis (IPA) software and used for core analysis. Pathways or networks with a p-value of 0.05 were considered statistically significant.

Compound: CC(=O)N(O)CCCCCNC(=O)CCC(=O)N(O)CCCCCNC(=O)CCC(=O)N(O)CCCCCN [DFO, reference compound]
- logFC(D142_ DFO - D142_BAS) (ProbeID ILMN_1699644): 2,52
- logFC(D142_ DFO - D142_BAS) RRAGD (ProbeID ILMN_1699772): 2,43
- logFC(D142_ DFO - D142_BAS) QPRT (ProbeID ILMN_1700268): -2,44
- logFC(D142_ DFO - D142_BAS) SULF1 (ProbeID ILMN_1702363): -2,42
- logFC(D142_ DFO - D142_BAS) TNFRSF19 (ProbeID ILMN_1704154): -2,00
- logFC(D142_ DFO - D142_BAS) SLC6A10P (ProbeID ILMN_1704446): 2,82
- logFC(D142_ DFO - D142_BAS) PHGDH (ProbeID ILMN_1704537): 2,18
- logFC(D142_ DFO - D142_BAS) ANGPTL4 (ProbeID ILMN_1707727): 6,19
- logFC(D142_ DFO - D142_BAS) TP53INP1 (ProbeID ILMN_1714108): 2,66
- logFC(D142_ DFO - D142_BAS) NNMT (ProbeID ILMN_1715508): -2,16
- logFC(D142_ DFO - D142_BAS) NGF (ProbeID ILMN_1716608): 2,73
- logFC(D142_ DFO - D142_BAS) C5orf46 (ProbeID ILMN_1718866): 2,59
- logFC(D142_ DFO - D142_BAS) BNIP3L (ProbeID ILMN_1718961): 2,24
- logFC(D142_ DFO - D142_BAS) SLC7A5 (ProbeID ILMN_1720373): 3,21
- logFC(D142_ DFO - D142_BAS) JMJD1A (ProbeID ILMN_1722532): 2,13
- logFC(D142_ DFO - D142_BAS) HK2 (ProbeID ILMN_1723486): 2,21
- logFC(D142_ DFO - D142_BAS) BNIP3 (ProbeID ILMN_1724658): 3,37
- logFC(D142_ DFO - D142_BAS) CTHRC1 (ProbeID ILMN_1725090): -2,13
- logFC(D142_ DFO - D142_BAS) CA9 (ProbeID ILMN_1725139): 3,31
- logFC(D142_ DFO - D142_BAS) SLC3A2 (ProbeID ILMN_1726456): 2,31
- logFC(D142_ DFO - D142_BAS) OLFML3 (ProbeID ILMN_1727532): -2,91
- logFC(D142_ DFO - D142_BAS) PRC1 (ProbeID ILMN_1728934): -2,66
- logFC(D142_ DFO - D142_BAS) STEAP1 (ProbeID ILMN_1733094): -2,15
- logFC(D142_ DFO - D142_BAS) COL12A1 (ProbeID ILMN_1733756): -2,56
- logFC(D142_ DFO - D142_BAS) PPP1R3C (ProbeID ILMN_1736670): 2,33
- logFC(D142_ DFO - D142_BAS) TMEM119 (ProbeID ILMN_1738116): -3,83
- logFC(D142_ DFO - D142_BAS) ULBP1 (ProbeID ILMN_1738407): 2,07
- logFC(D142_ DFO - D142_BAS) PLAT (ProbeID ILMN_1738742): 2,03
- logFC(D142_ DFO - D142_BAS) TUBA1A (ProbeID ILMN_1742981): -2,06
- logFC(D142_ DFO - D142_BAS) EGR2 (ProbeID ILMN_1743199): 2,34
- logFC(D142_ DFO - D142_BAS) C1QTNF5 (ProbeID ILMN_1744487): -2,69
- logFC(D142_ DFO - D142_BAS) ERO1L (ProbeID ILMN_1744963): 3,58
- logFC(D142_ DFO - D142_BAS) CEP55 (ProbeID ILMN_1747016): -2,32
- logFC(D142_ DFO - D142_BAS) EGLN1 (ProbeID ILMN_1749892): 2,28
- logFC(D142_ DFO - D142_BAS) IGFBP5 (ProbeID ILMN_1750324): 2,71
- logFC(D142_ DFO - D142_BAS) SESN2 (ProbeID ILMN_1751598): 2,18
- logFC(D142_ DFO - D142_BAS) PGK1 (ProbeID ILMN_1755749): 2,16
- logFC(D142_ DFO - D142_BAS) ALDOC (ProbeID ILMN_1755974): 2,33
- logFC(D142_ DFO - D142_BAS) ANKRD37 (ProbeID ILMN_1756417): 3,40
- logFC(D142_ DFO - D142_BAS) COQ2 (ProbeID ILMN_1756572): -2,03
- logFC(D142_ DFO - D142_BAS) NDUFA4L2 (ProbeID ILMN_1756573): 5,66
- logFC(D142_ DFO - D142_BAS) STC1 (ProbeID ILMN_1758164): 3,77
- logFC(D142_ DFO - D142_BAS) HIST1H2BD (ProbeID ILMN_1758623): 2,40
- logFC(D142_ DFO - D142_BAS) FAM107B (ProbeID ILMN_1758672): 2,18
- logFC(D142_ DFO - D142_BAS) LOC441019 (ProbeID ILMN_1761281): 2,16
- logFC(D142_ DFO - D142_BAS) AK3L1 (ProbeID ILMN_1764090): 2,74
- logFC(D142_ DFO - D142_BAS) OLFML2B (ProbeID ILMN_1765557): -3,16
- logFC(D142_ DFO - D142_BAS) LOC399942 (ProbeID ILMN_1765701): -2,67
- logFC(D142_ DFO - D142_BAS) ENO2 (ProbeID ILMN_1765796): 4,08
